Consider four compounds from BindingDB's records for doi:10.1021/jm00009a001 (Cns Research, 1995).

Each structure is given as a SMILES string.

For this experiment, the target named is Metabotropic glutamate receptor 5 (Rattus norvegicus, UniProt P31424). Description: Concentration for half maximal activation of metabotropic glutamate mGluR5a in rat.
Sequence of Metabotropic glutamate receptor 5 (P31424 whole entry): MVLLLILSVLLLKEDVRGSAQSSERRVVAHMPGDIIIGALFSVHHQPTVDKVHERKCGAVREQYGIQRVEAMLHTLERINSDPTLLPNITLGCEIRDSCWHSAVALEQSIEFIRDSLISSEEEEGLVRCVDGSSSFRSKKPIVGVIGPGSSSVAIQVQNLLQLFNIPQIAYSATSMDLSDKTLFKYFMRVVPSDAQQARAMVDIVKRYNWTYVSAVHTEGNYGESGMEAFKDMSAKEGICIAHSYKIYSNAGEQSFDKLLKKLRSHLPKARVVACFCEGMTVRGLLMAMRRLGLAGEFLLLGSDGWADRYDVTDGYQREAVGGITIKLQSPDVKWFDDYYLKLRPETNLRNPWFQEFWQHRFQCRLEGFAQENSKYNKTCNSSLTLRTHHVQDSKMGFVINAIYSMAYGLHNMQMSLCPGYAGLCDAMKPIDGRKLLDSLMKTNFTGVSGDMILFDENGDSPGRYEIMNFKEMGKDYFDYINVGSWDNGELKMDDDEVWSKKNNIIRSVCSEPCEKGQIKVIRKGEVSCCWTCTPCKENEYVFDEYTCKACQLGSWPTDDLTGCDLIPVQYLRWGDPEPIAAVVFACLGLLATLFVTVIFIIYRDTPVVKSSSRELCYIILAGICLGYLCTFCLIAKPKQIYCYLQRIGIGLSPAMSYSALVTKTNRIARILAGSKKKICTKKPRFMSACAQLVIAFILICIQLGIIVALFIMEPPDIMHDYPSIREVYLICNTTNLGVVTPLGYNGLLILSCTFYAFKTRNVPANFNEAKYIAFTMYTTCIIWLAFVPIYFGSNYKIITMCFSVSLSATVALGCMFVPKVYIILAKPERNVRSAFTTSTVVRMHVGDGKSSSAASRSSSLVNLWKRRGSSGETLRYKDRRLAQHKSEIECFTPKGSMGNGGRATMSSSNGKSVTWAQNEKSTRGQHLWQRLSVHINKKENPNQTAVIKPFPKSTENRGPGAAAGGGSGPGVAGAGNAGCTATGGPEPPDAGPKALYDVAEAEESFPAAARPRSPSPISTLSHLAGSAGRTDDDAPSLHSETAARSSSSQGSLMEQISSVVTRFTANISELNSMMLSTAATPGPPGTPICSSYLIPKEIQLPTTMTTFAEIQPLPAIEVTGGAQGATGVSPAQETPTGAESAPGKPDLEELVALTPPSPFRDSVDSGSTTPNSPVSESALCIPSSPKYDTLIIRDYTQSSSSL
One may read the EC50 as the concentration needed to bring the measured effect to its halfway point. High values mean a need for much substance, low ones an effect from little substance. `N[C@@]1(C(=O)O)CC[C@@H](C(=O)O)C1` [SMR001230688]: the “EC50” value worked out at 50 µM. The result for `N[C@@H](CCC(=O)O)C(=O)O` [L-Glutamic acid] reads 10 µM; that for `N[C@@H](Cn1oc(=O)[nH]c1=O)C(=O)O` [2-amino-3-(3,5-dioxo[1,2,4]oxadiazolidin-2-yl)propionic acid], 0.3 µM; that for `N[C@H](C(=O)O)c1cc(=O)[nH]o1` [(S)-Amino-(3-oxo-2,3-dihydro-isoxazol-5-yl)-acetic acid], 10 µM.
